Measurements from US8226972B2, “Vaginal delivery of drugs” (FemmePharma Holding Company, Inc., priority 2001, dated 2012).

Legend:
[1] = test system: bladder; experiment: Example 2: cystometry at 1.42 mL/minute after vaginal oxybutynin; format: in vivo, rabbit
Source text: (§1) 16 mature female New Zealand white rabbits were separated into two groups of eight. The rabbits in Group 1 received a high dose oxybutynin formulations; and the rabbits in Group 2 received a low dose oxybutynin formulation. For the high dose, 3 grams (g) of oxybutynin HCl were suspended in 6 g of gel (yielding a concentration of 0.5 g Oxybutynin/g gel) and 3 g of the formulation were placed in the vagina. For the low dose, 0.3 g of oxybutynin HCl were suspended in 6 g of gel (yielding a concentration of 0.05 g Oxybutynin/g gel), and 3 g of the formulation were placed in the vagina.
The bladder was exposed through a midline incision, and the bladder dome was catheterized with an 8 F catheter for both the monitoring of bladder pressure and for cystometry. The bladder neck-urethra was ligated to prevent micturition or leakage through the urethra. The catheter was connected to an infusion pump (Harvard Apparatus) and a pressure transducer.
Then, the rabbit was taken off of the isoflurane and anesthesia was maintained by ketamine-xylazine so that micturition reflexes could be observed during cystometry. After 15 minutes, the infusion pump was turned on and at an infusion rate of 1.0 mL/minute, a cystometric curve was generated. The volume at which a micturition reflex was observed was considered to be the functional capacity of the bladder. Bladder capacity and Bladder Compliance were determined. The bladder was then filled to 20 mL.
(§2) After the third Ach administration, the application of the oxybutynin containing gel was administered to the vagina and the responses to Ach were determined at 15-minute intervals for 2 hours. When the response to Ach was reduced, then the time period was extended to 4 hours. At the end of the experiment, a second cystometric curve was generated.
(§3) The protocol described in Example 1 was followed in this experiment, with the following changes. The infusion pump was turned on and, at an infusion rate of 1.42 mL/minute, a cystometric curve was generated.

[2] = test system: bladder; experiment: Example 2: bladder contractile response to intra-arterial Ach; format: in vivo, rabbit
Source text: as §1
Acetylcholine (Ach), a chemical that causes the bladder muscle (detrusor) to squeeze or contract, was injected through the intra-arterial polyethylene catheter in a volume of 0.31-0.39 mL (i.e., 0.1 mL/kg of rabbit), followed by 0.2 mL of heparinized saline. Change of intravesical pressure following the administration of Ach (10^−6 mol/kg) was monitored by the pressure transducer and recorded on a Grass model 7D polygraph. A 10-minute interval passed between Ach administrations, and three flushes of normal saline, in an amount of 0.1 ml/kg of rabbit, were administered. Three responses to Ach were performed at 10-minute intervals to ensure consistent responses.
as §2, §3

[3] = test system: bladder; experiment: Example 3: cystometry after vaginal or oral oxybutynin; format: in vivo, rabbit; settings: for micturition pressure: four hours after administration
Method: (§4) 30 mature female New Zealand white rabbits (˜4 kg) were separated into five groups of six rabbits each. Intra arterial administration of Ach was used as a model for hyperreflexia. The effects on intra arterial stimulated contraction were compared with effects on micturition pressure generation.
(§5) Each rabbit was sedated with an intramuscular injection of ketamine-xylazine ((25 mg ketamine+6 mg xylazine)/kg rabbit) and anesthesia was maintained by isoflurane. After anesthesia, the right external carotid artery was cannulated for blood pressure monitoring. A polyethylene catheter (Intramedic) with an outer diameter of 0.043 inches was inserted through the rabbit's right femoral artery until it reached the lower abdominal aorta (approximately 0.5 Central Mutual above the bifurcation of the aorta). A heparizined saline (30 iu/mL) filled polyethylene catheter was used for intra-arterial administration of drugs. To facilitate the delivery of the maximum amount of drugs to the urinary bladder, the rabbit's left femoral artery was ligated.
(§6) The bladder was exposed through a midline incision, and the bladder dome was catheterized with an 8 F catheter for both the monitoring of bladder pressure and for cystometry. The bladder neck-urethra was ligated to prevent micturition or leakage through the urethra. The catheter was connected to an infusion pump (Harvard Apparatus) and a pressure tranducer. The right carotid artery was cannulated for monitoring blood pressure. Bladder pressure and blood pressure were recorded on a Grass model 7D Polygraph, and were simultaneously digitized using a Polyview A/D digital analytical system.
(§7) Cystometry was performed at 1.4 mL/min until a micturition contraction or a volume of 80 mL was obtained. After the first cystometry, Ach (10^−6 mol/kg) was injected through the intra-arterial polyethylene catheter in a volume of 0.1 ml/kg followed by three washes of 0.2 ml of heparinized saline. The blood pressure and bladder pressure responses were recorded and digitized.
(§8) After three consistent Ach tests, (i.e. responses within 20% of each other) the rabbits in the control group (Group 1) received a vaginal administration of 3 mL of gel (no oxybutynin); the rabbits in the high dose group (Group 2) received a vaginal administration of 1.5 g of oxybutynin suspended in 3 mL of gel; the rabbits in the intermediate dose group (Group 3) received 0.5 g of oxybutynin suspended in 3 mL of gel; the rabbits in the low dose group (Group 4) received a vaginal administration of 0.15 g of oxybutynin suspended in 3 mL of gel; and the rabbits in the oral dose group (Group 5) received 0.5 g of an oral preparation of oxybutynin dissolved in 3 mL of saline.
(§9) Ach was administered at 10 minute intervals for two hours, and then a second cystometry was performed. Ach administration continued at 10 minute intervals for a second two hour period, and then a final cystometry performed.
(§10) Statistical significance was determined using analysis of variance followed by Bonferroni test for individual differences. A p<0.05 was required for significance.

[4] = test system: bladder; experiment: Example 3: bladder response to intra-arterial Ach (model for hyperreflexia); format: in vivo, rabbit
Method: as §4, §5, §6, §7, §8, §9, §10

[5] = test system: blood pressure; experiment: Example 3: vascular (blood pressure) response to Ach; format: in vivo, rabbit
Method: as §4, §5, §6
Cystometry was performed at 1.4 mL/min until a micturition contraction or a volume of 80 mL was obtained. […] The blood pressure and bladder pressure responses were recorded and digitized. […]
Statistical significance was determined using analysis of variance followed by Bonferroni test for individual differences. […]

[6] = solid device containing oxybutynin inserted in the vagina of a rabbit (Schröder); cited from earlier work

SMILES: CCN(CC)CC#CCOC(=O)C(O)(c1ccccc1)C1CCCCC1 (stereo not shown) [oxybutynin]
- Bladder Compliance ([1]; high dose vaginal): significant decrease
- intravesical pressure during cystometry ([1]; high dose vaginal): decreased
- intravesical volume at micturition (no micturition reflex up to this volume; cystometry stopped) ([1]; high dose vaginal, before approximately 20 mL): > 80 mL
- micturition reflex ([1]; high dose vaginal, up to bladder volume of 80 mL): inhibited
- Bladder Compliance ([1]; low dose vaginal): decrease
- intravesical pressure during cystometry (at micturition) ([1]; low dose vaginal, after administration (about 15 before), FIG. 4): about 8 cm H2O
- pressure at which micturition occurred ([1]; low dose vaginal, after administration (about 16 before), FIG. 3): about 8 cm H2O
- magnitude of the micturition reflex (micturition pressure) ([1]; low dose vaginal, after administration (about 22 before)): about 10 cm H2O
- intravesical volume at micturition ([1]; low dose vaginal, after treatment, approximately the same as before): about 22 mL
- contractile response to intra-arterial Ach ([2]; high dose vaginal, after 4 hours): not restored
- contractile response to intra-arterial Ach ([2]; high dose vaginal, at 15 minutes): complete inhibition
- contractile response to intra-arterial Ach ([2]; low dose vaginal, at 45 minutes): decreased response
- intravesical pressure response to intra-arterial Ach ([2]; low dose vaginal, from 45 minutes for the remaining 2.25 hours): about 7 cm H2O
- bladder volume at micturition ([3]; all of the formulations (vaginal low, intermediate, high; oral)): significant increase
- Bladder Compliance ([3]; all oxybutynin-treated groups): decreased
- decrease of Bladder Compliance ([3]; high dose vaginal): 7.3 fold
- micturition reflex ([3]; highest dose): virtually eliminated
- decrease of Bladder Compliance ([3]; intermediate dose vaginal): 4.5 fold
- decrease of Bladder Compliance ([3]; low dose vaginal): 3.3 fold
- intravesical pressure immediately prior to micturition ([3]; oral (0.5 g in 3 mL saline)): significantly reduced
- inhibitory effects on the micturition reflex, oral compared with the vaginal route ([3]; oral preparation vs intermediate dose vaginal): significantly greater inhibitory effects
- effect on Bladder Compliance and bladder capacity, oral compared with the vaginal route ([3]; oral preparation vs intermediate dose vaginal (equal effects on Ach stimulated contraction)): smaller effect
- micturition pressure ([3]; oral): significantly reduced
- intravesical pressure immediately prior to micturition ([3]; vaginal high dose (1.5 g in 3 mL gel)): significantly reduced
- micturition pressure ([3]; vaginal high dose): significantly reduced
- intravesical pressure immediately prior to micturition ([3]; vaginal intermediate dose (0.5 g in 3 mL gel)): significantly reduced
- micturition pressure ([3]; vaginal intermediate dose): not significantly affected
- intravesical pressure immediately prior to micturition ([3]; vaginal low dose (0.15 g in 3 mL gel)): no significant effect
- micturition pressure ([3]; vaginal low dose): not significantly affected
- response to Ach compared to the control response ([4]; all preparations of oxybutynin): statistically significant decrease
- onset of action ([4]; high dose vaginal): very fast
- response to Ach ([4]; high dose vaginal, at 30 minutes, remained active throughout the 4 hour study): completely inhibited
- response to acetylcholine ([4]; highest dose): completely eliminated
- response to Ach ([4]; intermediate vaginal dose, reached over 90 minutes, remaining for the rest of the experiment): approximately 40 % of control
- response to Ach ([4]; low vaginal dose, reached over 90 minutes, remaining for the rest of the experiment): approximately 40 % of control
- response to Ach ([4]; oral, reached over 90 minutes, remaining for the rest of the experiment): approximately 40 % of control
- vascular response to Ach ([5]; any dose, vaginally delivered, entire 4 hour period): no effect
- effects on the cardiovascular system ([5]; highest dose): only minor effects
- blood pressure response to Ach ([5]; oral): inhibitory effects
- systemic levels of oxybutynin [6]: effective at reducing the systemic levels
